Laboratory results reported in patent US20180057505A1, “BICYCLIC HETEROARYL COMPOUNDS USEFUL AS INHIBITORS OF THE PAR-2 SIGNALING PATHWAY” (VERTEX PHARMACEUTICALS INCORPORATED, priority 2015, published 2018).

Tests used:
Type in all cases: cell-based
[1] = target: T1, PAR2 (HT-29 cells) (Homo sapiens, UniProt P55085); test: Ca FLIPR TETRA assay, ANTAGONIST mode, activator 8 μM SLIGKV; conditions: HT-29 cells, activator 8 μM SLIGKV; maximal antagonist concentration per Method (A: 0.1, 1 or 2 μM; B: 50 μM)
T1 construct: host or cells: HT-29
T1 sequence (P55085 26-397): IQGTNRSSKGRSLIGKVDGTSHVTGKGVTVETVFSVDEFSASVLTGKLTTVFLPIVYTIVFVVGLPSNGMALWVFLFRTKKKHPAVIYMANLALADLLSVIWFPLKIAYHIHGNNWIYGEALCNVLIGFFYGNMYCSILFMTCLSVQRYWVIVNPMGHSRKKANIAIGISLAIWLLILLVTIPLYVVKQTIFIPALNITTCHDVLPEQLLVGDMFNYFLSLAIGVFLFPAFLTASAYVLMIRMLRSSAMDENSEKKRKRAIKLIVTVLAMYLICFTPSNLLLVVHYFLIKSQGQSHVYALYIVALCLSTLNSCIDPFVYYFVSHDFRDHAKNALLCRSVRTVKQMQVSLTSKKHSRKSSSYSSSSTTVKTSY
Procedure, shortened: (§1)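 Antagonist-mode FLIPR Tetra Ca2+ read: dye-loaded HT-29 cells preincubated 30 min at r.t. with compound (first read checks agonism alone), then challenged with final 3.1 U/mL trypsin, 8 μM SLIGKV, 1 U/mL thrombin or 0.6 μM UTP. Cells plated overnight in 1% FBS McCoy's; Calcium 5 loading 45 min 37 °C plus 15 min r.t.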

[2] = target: T1, PAR2 (HT-29 cells); test: Ca FLIPR TETRA assay, ANTAGONIST mode, activator 3.1 U/mL trypsin; conditions: HT-29 cells, activator 3.1 U/mL trypsin; maximal antagonist concentration per Method (A: 0.1, 1 or 2 μM; B: 50 μM)
Procedure, shortened: as §1

[3] = test system: Thrombin-stimulated Ca2+ response in HT-29 cells; test: Ca FLIPR TETRA assay, ANTAGONIST mode, activator 1 U/mL Thrombin; conditions: HT-29 cells, activator 1 U/mL Thrombin
Procedure, shortened: as §1

[4] = test system: UTP-stimulated Ca2+ response in HT-29 cells; test: Ca FLIPR TETRA assay, ANTAGONIST mode, activator 0.6 μM UTP; conditions: HT-29 cells, activator 0.6 μM UTP
Procedure, shortened: as §1

Row | SMILES | IC50 [1] [nM] | IC50 [2] [nM] | IC50 ([3]; Homo sapiens) [nM] | IC50 ([4]; Homo sapiens) [nM] | IC50 [3] [nM] | IC50 [4] [nM]
1 | CC(C)(C)c1cc(-c2ccc(Cl)c(F)c2)nc2cc(C(=O)N3CCN(C(=O)c4ccc(C(=O)O)nc4)CC3(C)C)oc12 [Example I-252] | 120 | 140 | > 2000 | > 2000 |  | 
2 | CC(C)(C)c1cc(-c2ccc(Cl)cc2)nc2cc(C(=O)N3CCN(C(=O)C4CCC(C(=O)O)O4)CC3(C)C)oc12 (stereo not drawn) [Example I-256] | 22 | 31 | > 2000 | > 2000 |  | 
3 | CC(C)(C)c1cc(-c2ccc(Cl)c(F)c2)nc2cc(C(=O)N3CCN(C(=O)c4cccnc4)CC3(C)C)oc12 [Example I-257] | 210 | 180 |  |  | > 2000 | > 2000
4 | CC1(C)CCC(c2cc(C(C)(C)C)c3oc(C(=O)N4CCN(c5cn[nH]c5)CC4(C)C)cc3n2)CC1 [Example I-258] | 23 | 17 | > 2000 | > 2000 |  | 
5 | CC(C)(C)c1cc(-c2ccc(Cl)c(F)c2)nc2cc(C(=O)N3CCN(c4ccnc(C(=O)O)c4)CC3(C)C)oc12 [Example I-261] | 45 | 31 | > 2000 | > 2000 |  | 
6 | CC(C)(C)c1cc(-c2ccc(Cl)cc2)nc2cc(C(=O)N3CCN(c4ccncc4)CC3(C)C)oc12 [Example I-262] | 770 | 1900 | > 2000 | > 2000 |  | 
7 | Cc1nccnc1N1CCN(C(=O)c2cc3nc(-c4ccc(Cl)cc4)cc(C(C)(C)C)c3o2)C(C)(C)C1 [Example I-266] | 36 | 33 | > 2000 | > 2000 |  | 
8 | CC(C)(C)c1cc(-c2ccc(Cl)c(F)c2)nc2cc(C(=O)N3CCN(c4cccnc4)CC3(C)C)oc12 [Example I-267, [7-tert-butyl-5-(4-chloro-3-fluoro-phenyl)furo[3,2-b]pyridin-2-yl]-[2,2-dimethyl-4-(3-pyridyl)piperazin-1-yl]methanone] | 33 | 25 | > 2000 | > 2000 |  | 
9 | CC(C)(C)c1cc(-c2ccc(Cl)cc2)nc2cc(C(=O)N3CCN(c4cccnc4)CC3(C)C)oc12 [Example I-269] | 57 | 41 | > 2000 | > 2000 |  | 
10 | CC(C)(C)c1cc(-c2ccc(Cl)cc2)nc2cc(C(=O)N3CCN(c4cn[nH]c4)CC3(C)C)oc12 [Example I-273] | 26 | 14 | > 2000 | > 2000 |  | 
11 | CC(C)(C)c1cc(-c2ccc(Cl)cc2)nc2cc(C(=O)N3CCN(c4ccc(C(=O)O)nc4)CC3(C)C)oc12 [Example I-274] | 61 | 34 | > 2000 | > 2000 |  | 
12 | CC(C)(C)c1cc(-c2ccc(Cl)c(F)c2)nc2cc(C(=O)N3CCN(c4cc(C(=O)O)n[nH]4)C(=O)C3(C)C)oc12 [Example I-280, 5-[4-[7-tert-butyl-5-(4-chloro-3-fluoro-phenyl)furo[3,2-b]pyridine-2-carbonyl]-3,3-dimethyl-2-oxo-piperazin-1-yl]-1H-pyrazole-3-carboxylic acid] | 36 | 52.5 | > 2000 | > 2000 |  | 

Compounds with a lower IC50 [1], results first:

Row | IC50 [1] [nM] | IC50 [2] [nM] | IC50 ([3]; Homo sapiens) [nM] | IC50 ([4]; Homo sapiens) [nM] | IC50 [3] [nM] | IC50 [4] [nM] | SMILES
13 | 21 | 51 | > 2000 | > 2000 |  |  | CC1(C)CCC(c2cc(C(C)(C)C)c3oc(C(=O)N4CCN(c5ccccn5)CC4(C)C)cc3n2)CC1 [Example I-270]
14 | 21 | 14 | > 2000 | > 2000 |  |  | CC(C)(C)c1cc(-c2ccc(Cl)cc2)nc2cc(C(=O)N3CCN(c4ccccn4)CC3(C)C)oc12 [Example I-272]
15 | 18 | 61.5 | > 2000 | > 2000 |  |  | CC1(C)CCC(c2cc(C(C)(C)C)c3oc(C(=O)N4CCN(c5ccn[nH]5)C(=O)C4(C)C)cc3n2)CC1 [Example I-283, 4-[7-tert-butyl-5-(4,4-dimethylcyclohexyl)furo[3,2-b]pyridine-2-carbonyl]-3,3-dimethyl-1-(1H-pyrazol-5-yl)piperazin-2-one]
16 | 16 | 20 | > 2000 | > 2000 |  |  | Cc1cc(-c2cc(C(C)(C)C)c3oc(C(=O)N4CCN(c5cn[nH]c5)C(=O)C4(C)C)cc3n2)ccc1Cl [Example I-275, 4-[7-tert-butyl-5-(4-chloro-3-methyl-phenyl)furo[3,2-b]pyridine-2-carbonyl]-3,3-dimethyl-1-(1H-pyrazol-4-yl)piperazin-2-one]
17 | 15 | 18 | > 2000 | > 2000 |  |  | Cc1cnc(N2CCN(C(=O)c3cc4nc(-c5ccc(Cl)cc5)cc(C(C)(C)C)c4o3)C(C)(C)C2)cn1 [Example I-264]
18 | 13 | 14.5 | > 2000 | > 2000 |  |  | Cc1cc(N2CCN(C(=O)c3cc4nc(-c5ccc(Cl)c(F)c5)cc(C(C)(C)C)c4o3)C(C)(C)C2=O)[nH]n1 [Example I-284, 4-[7-tert-butyl-5-(4-chloro-3-fluoro-phenyl)furo[3,2-b]pyridine-2-carbonyl]-3,3-dimethyl-1-(3-methyl-1H-pyrazol-5-yl)piperazin-2-one]
19 | 11 | 13 | > 2000 | > 2000 |  |  | CC(C)(C)c1cc(-c2ccc(Cl)c(F)c2)nc2cc(C(=O)N3CCN(C(=O)C4CCC(C(=O)O)O4)CC3(C)C)oc12 (stereo not drawn) [Example I-255]
20 | 8.5 | 20 | > 2000 | > 2000 |  |  | CC1(C)CCC(c2cc(C(C)(C)C)c3oc(C(=O)N4CCN(C(=O)C5CCC(C(=O)O)O5)CC4(C)C)cc3n2)CC1 (stereo not drawn) [Example I-254]
21 | 8 | 7.9 | > 2000 | > 2000 |  |  | CC(C)(C)c1cc(-c2ccc(Cl)c(F)c2)nc2cc(C(=O)N3CCN(c4cn[nH]c4)CC3(C)C)oc12 [Example I-259]
22 | 7.5 | 8.3 | 1600 | 1800 |  |  | CC(C)(C)c1cc(-c2ccc(Cl)cc2)nc2cc(C(=O)N3CCN(c4ccc(C(=O)O)cn4)C(=O)C3(C)C)oc12 [Example I-282, 6-[4-[7-tert-butyl-5-(4-chlorophenyl)furo[3,2-b]pyridine-2-carbonyl]-3,3-dimethyl-2-oxo-piperazin-1-yl]pyridine-3-carboxylic acid]
23 | 7.4 | 7.8 | > 2000 | > 2000 |  |  | CC(C)(C)c1cc(-c2ccc(Cl)c(F)c2)nc2cc(C(=O)N3CCN(c4ccccn4)CC3(C)C)oc12 [Example I-271]
24 | 5.8 | 5.5 | > 2000 | > 2000 |  |  | Cc1cncnc1N1CCN(C(=O)c2cc3nc(-c4ccc(Cl)cc4)cc(C(C)(C)C)c3o2)C(C)(C)C1 [Example I-265]
25 | 4.9 | 9.4 | > 2000 | > 2000 |  |  | COC(=O)c1cccc(N2CCN(C(=O)c3cc4nc(-c5ccc(Cl)c(F)c5)cc(C(C)(C)C)c4o3)C(C)(C)C2)n1 [Example I-268]
26 | 3.6 | 7.4 | 1750 | > 2000 |  |  | CC1(C)CCC(c2cc(C(C)(C)C)c3oc(C(=O)N4CCN(c5ccc(C(=O)O)cn5)C(=O)C4(C)C)cc3n2)CC1 [Example I-281, 6-[4-[7-tert-butyl-5-(4,4-dimethylcyclohexyl)furo[3,2-b]pyridine-2-carbonyl]-3,3-dimethyl-2-oxo-piperazin-1-yl]pyridine-3-carboxylic acid]
27 | 3.5 | 9.5 | > 2000 | > 2000 |  |  | CC(C)(C)c1cc(-c2ccc(Cl)c(F)c2)nc2cc(C(=O)N3CCN(c4cccc(C(=O)O[C@@H]5OC(C(=O)O)[C@@H](O)C(O)[C@@H]5O)n4)CC3(C)C)oc12 (stereo partly drawn) [Example I-253, (3S,5S,6S)-6-[6-[4-[7-tert-butyl-5-(4-chloro-3-fluoro-phenyl)furo[3,2-b]pyridine-2-carbonyl]-3,3-dimethyl-piperazin-1-yl]pyridine-2-carbonyl]oxy-3,4,5-trihydroxy-tetrahydropyran-2-carboxylic acid]
28 | 3.3 | 4.4 | > 2000 | > 2000 |  |  | CC(C)(C)c1cc(-c2ccc(Cl)c(F)c2)nc2cc(C(=O)N3CCN(c4cn[nH]c4)C(=O)C3(C)C)oc12 [Example I-260]
29 | 2.6 | 3.9 | > 2000 | > 2000 |  |  | Cc1ccc(N2CCN(C(=O)c3cc4nc(-c5ccc(Cl)cc5)cc(C(C)(C)C)c4o3)C(C)(C)C2)nn1 [Example I-263]
30 | 1.2 | 1.8 | > 2000 | > 2000 |  |  | Cc1ccnc(N2CCN(C(=O)c3cc4nc(-c5ccc(Cl)c(F)c5)cc(C(C)(C)C)c4o3)C(C)(C)C2=O)n1 [Example I-276]
